Like-named read-outs stand apart in the source and are kept apart here.
How the values were obtained:
[1] = tested on: CD81; experiment: CD81 expression in vivo in hyperlipidemic PCSK9hum/hum/LDLR+/- mice after alirocumab; conditions: hyperlipidemic mice expressing human PCSK9 with reduced LDLR expression (PCSK9hum/hum/LDLR+/-), after administering alirocumab
Description: (§1) CD81 expression in vivo in PCSK9−/−mice and in hyperlipidemic mice expressing human PCSK9 with reduced LDLR expression (PCSK9hum/hum/LDLR+/−) were tested after administering alirocumab; no changes in total CD81 levels were observed. […] Based on conflicting data, the relevant scientific literature is currently considered inadequate to conclusively address the potential impact of alirocumab on HCV infectivity. It should be noted that increased cell-surface LDLR has also been postulated to modulate HCV infectivity; statins, like alirocumab, increase cell-surface LDLR.

[2] = tested on: HCV; experiment: HCV infectivity and replication kinetics in vitro with extracellular PCSK9 in presence/absence of alirocumab; type: cell-based; conditions: addition of extracellular PCSK9 in the presence/absence of alirocumab
[3] = humans administered alirocumab; cited from earlier work
[4] = monkey, in vivo; cited from earlier work
[5] = monkeys, 3-month, co-administered with atorvastatin at doses producing modest ALT increases; cited from earlier work
[6] = Patient with chronically elevated liver enzymes and bilirubin treated with Praluent brand alirocumab; type: in vivo, human; conditions: middle age person
From the text: A middle age person had chronically elevated AST, ALT and gamma glutamyl transferase and elevated bilirubin levels and clay colored stools. There was no viral hepatitis. […] The patient also felt less fatigued.

[7] = monkey, cited from earlier work
[8] = tested on: CD81; experiment: CD81 expression in vivo in PCSK9-/- mice after alirocumab; conditions: after administering alirocumab
Description: as §1

[9] = monkey, in vivo; cited from earlier work; remark: listed apart in the source
[10] = monkey, in vivo; cited from earlier work; remark: listed apart in the source
[11] = rat, in vivo; cited from earlier work
[12] = cited from earlier work
[13] = rat, in vivo; cited from earlier work; remark: listed apart in the source
[14] = chronically elevated, no viral hepatitis, after treatment for 1-2 months

With alirocumab as the substance, how does the “total CD81 levels” value [1] read?
Its value is “no changes”.

What about the “effects on HCV infectivity” value [2] of the same substance?
Its value is “No effects”.

What about the “effects on HCV replication kinetics” value [2] of the same substance?
The value was “No effects”.

And the HDL-C [3]?
Its HDL-C is “not reduced”.

And the “effects on T-cell dependent antibody response” value [4]?
The value was “no effects”.

And the “effects on cytotoxic T-cell activity” value [4]?
Its value is “no effects”.

What about the “effects on immune cell populations” value [4] of the same substance?
The value was “no effects”.

What about the “effects on natural killer cell activity” value [4] of the same substance?
The value was “no effects”.

And the liver toxicity [5]?
Its liver toxicity is “not exacerbated”.

And the ALT [6, 14]?
The ALT was “returned to normal”.

And the AST [6, 14]?
The AST was “returned to normal”.

And the gamma glutamyl transferase [6, 14]?
Its gamma glutamyl transferase is “returned to normal”.

What about the bilirubin levels ([6]; elevated, after treatment for 1-2 months) of the same substance?
The bilirubin levels was “returned to normal”.

What about the fatigue ([6]; after treatment) of the same substance?
The fatigue was “less fatigued”.

What about the clay colored stools ([6]; after treatment for 1-2 months) of the same substance?
Its clay colored stools is “became normal”.

And the “sinusoidal cell defects in the liver (this phenomenon)” value ([7]; in vivo)?
Its value is “not observed”.

What about the HDL-C levels [7] of the same substance?
Its HDL-C levels is “greatly reduced”.

What about the “total CD81 levels” value [8] of the same substance?
The value was “no changes”.

What about the “alirocumab-related effects on peripheral neurons” value [9] of the same substance?
The value was “No significant alirocumab-related effects”.

And the imbalances for infections [10]?
The imbalances for infections was “no imbalances”.

What about the imbalances for infections [11] of the same substance?
Its imbalances for infections is “no imbalances”.

What about the “sinusoidal cell defects in the liver” value ([12]; rat, in vivo) of the same substance?
The value was “sinusoidal cell defects were observed”.

And the HDL ([12]; rats administered alirocumab)?
Its HDL is “low HDL”.

And the “alirocumab-related effects on peripheral neurons” value [13]?
The value was “No significant alirocumab-related effects”.

Source: patent US20200017603A1, “NOVEL USES OF PCSK9 INHIBITORS AND RELATED MEDICATIONS” (BHL PATENT HOLDINGS, LLC, priority 2016, published 2020)
